Measurements published in patent publication US20260083687A1, “COMPOUNDS FOR REDUCING LACTATION AND IMPROVING HEALTH” (AHV International B.V., priority 2022, published 2026).

Test system: cows
Experiment: Administering of DPD at abrupt dry off and occurrence of mastitis / new intramammary infections, milk leakage, SCC (Example 10)
Assay type: in vivo, cow
Procedure: Study design. Cow description. 59 cows from 5 different farms were used for this study. The cows were randomly divided into 3 groups: • Control group; • DPD Treatment group 1: DC Liquid (500 mL) group (composition with 80 ml pure dipropyl disulfide); and • DPD Treatment group 2: DPD enriched onion Extract (OE) bolus (150 mL) group (corresponding to 80 ml pure dipropyl disulfide).
The control group consisted of 24 cows with an average milk production prior to dry off of 17.23 liters. […] The average lactation of the control group was 2.1 and they had on average a dry period of 48 days (10 animals in 1st lactation, 4 in 2nd lactation, 6 in 3th lactation and 4 in 4th lactation). 50% of all cows in the control group were observed leaking milk regardless of milk production prior to dry off, and the incidence goes up to 63% if the cows with production below or equal to 12.5 liters prior to dry off or discarded.
The DC Liquid treatment group consisted of 18 cows with an average mp prior to dry off of 21.61 liters (1 cow with a mp lower than 12.5 liters, lowest 11.40 liters and highest 32 liters). The average lactation of the DC Liquid group was 1.9 with 11 cows in 1st lactation, 2 cows in 2nd, 3 cows in 3th, and 2 cows in 5th lactation. The average dry period of this group was 49 days.
The DPD enriched OE bolus treatment group consisted of 17 cows with an average mp prior to dry off of 20.6 liters (lowest 13.8 and high 32 liters) and an average lactation of 2.2 (6 cows in 1 s lactation, 4 cows in 2nd, 4 cows in 3th, and 3 cows in 4th lactation). 1 cow dropped out during the dry period because of non-related lameness issues. The dry period of this group was on average 46 days.
After the last milking the cows received the dry off protocol according to the farms protocols. The DPD treatment groups received a DPD treatment in the form of a bolus dose by bolus shooter in the rumen. Both treatment groups consisted of treatment with 80 ml DPD. In all cases abrupt dry-off was applied, with no restriction in number of milking nor change of feed prior to dry-off. Before moving to the dry pen all cows underwent hoof trimming. During the dry period and after calving the cows were monitored for signs of mastitis. Before the cows were 30 days in lactation a SCC was determined to evaluate the dry period.
Intramammary infections (IMI) were defined as signs of a clinical mastitis (ao. Flocks, watery milk, coloring of milk) cases during the dry period and in the first 30 days in lactation or a rise in individual somatic cell count (ISCC) from before to after the dry period (threshold: 200,000 cells/mL) or both.

CCCSSCCC [DPD, di-n-propyl disulfide]
outcome of animals that entered the dry period diagnosed with an IMI (3 animals (2 DC Liquid, 1 DPD enriched OE)): all 3 recovered at the start of the new lactation | animals diagnosed with a new IMI after calving (80 ml DPD at abrupt dry off): 21% | cases with a decrease of SCC after calving (80 ml DPD at abrupt dry off): 61% | incidence of milk leakage (80 ml DPD at abrupt dry off, DPD treatment groups 1 and 2 combined): 17% | reduction of risk of new IMI (DPD treated groups combined vs control group): 42% | reduction of incidence of milk leakage (DPD treatment groups combined vs control group): 73% | cows with signs of mastitis (flocks in milk) (after calving, DPD treatment group): 1 cow | cows with signs of clinical mastitis (during the dry period, DPD treatment group): 1 cow
